According to patent publication US11497737B2, “Pharmaceutical compositions of albumin and rapamycin” (Abraxis BioScience, LLC, priority 2019, dated 2022):
≈ marks a conversion by molar mass, not a printed value.

Legend:
[1] = Rapamycin solubility from light scattering intensity of diluted reconstituted nanoparticle suspension; format: physicochemical; details: saline or isotonic; in 0.9% saline solution; from light scattering intensity vs rapamycin concentration of reconstituted albumin-rapamycin nanoparticle suspension; read-out: solubility point of rapamycin
Experimental: FIG. 5 depicts light scattering intensity (kcps) as a function of rapamycin concentration from a reconstituted suspension of the pharmaceutical composition comprising nanoparticles comprising rapamycin and albumin. When the suspensions were diluted to concentrations below the rapamycin solubility, the nanoparticles completely disintegrated and dissolved (see left 7-8 data points on graph). However, when the suspensions were diluted to concentrations above the rapamycin solubility, the nanoparticles only partially disintegrated and dissolved, and light scattering was observed (see right 4-5 data points on graph).
The albumin-based rapamycin nanoparticle compositions described herein in some embodiments have a particular in vitro release kinetic behavior. […] In this assay, the particle size and intensity of light scattered by the particles are measured by DLS over time following a reduction in particle concentration. In some embodiments, the release kinetics are determined by diluting the pharmaceutical composition in a 0.9% saline solution. In some embodiments, the release kinetics are determined by diluting the pharmaceutical composition in a 5% human albumin solution.
In some embodiments, the in vitro release is determined using the dynamic light scattering method. […] In some embodiments, the intensity of light scattered is measured at a scattering angle of 173°.

[2] = Solubility of rapamycin in reconstituted suspension by light scattering; format: physicochemical; details: saline or isotonic; reconstituted suspension of the pharmaceutical composition in 0.9% saline; mean±95% CI
Experimental: The change in intensity of light scattering in diluted samples of the reconstituted suspension of the pharmaceutical composition was used as a measure to determine the in vitro dissolution or disintegration of the nanoparticles, which implicates the release of rapamycin from the nanoparticles of the pharmaceutical composition. The percent of rapamycin released at any given time was determined using the light scattering intensity at zero time and at time t. The intensity of light scattering, measured by the Malvern Zetasizer Nano, is relative to the number of nanoparticles present in the pharmaceutical composition. […] If the release of rapamycin from the nanoparticles is controlled by the solubility limit and the reconstituted suspension is diluted to a concentration within the solubility range, then the nanoparticles should rapidly dissolve, causing the rapamycin to be readily released from the nanoparticles of the pharmaceutical composition, and the light scattering intensity will approach zero.
When the suspensions were diluted to concentrations above the rapamycin solubility, the nanoparticles only partially disintegrated and dissolved, and light scattering was observed. […] The solubility of rapamycin was determined as the concentration at which the intensity of the scattered light begins to increase linearly.

Q: With `CO[C@H]1C[C@@H]2CC[C@@H](C)[C@@](O)(O2)C(=O)C(=O)N2CCCC[C@H]2C(=O)O[C@H]([C@H](C)C[C@@H]2CC[C@@H](O)[C@H](OC)C2)CC(=O)[C@H](C)/C=C(\C)[C@@H](O)[C@@H](OC)C(=O)[C@H](C)C[C@H](C)/C=C/C=C/C=C/1C` [rapamycin] as the compound, how does the solubility [1] read?
A: The solubility was 16.1 ± 1.8 µg/mL (≈ 17.6 µM).

Q: What about the solubility [2] of the same compound?
A: The solubility was 16.1 ± 1.8 µg/mL (≈ 17.6 µM).
